The values below come from US7211422B2, “Polypeptide having α-isomaltosylglucosaccharide synthase activity” (Kabushiki Kaisha Hayashibara Seibutsu Kagaku Kenkyujo, priority 2001, dated 2007).

Assay [1] has as its system α-isomaltosylglucosaccharide-forming enzyme from Bacillus globisporus N75. Briefly: Action on saccharides (TLC before and after enzymatic reaction). Type of assay: biochemical. Further details: key: −: it showed no change; +: it showed a slight reduction of the color spot of the substrate and the formation of other reaction product; ++: it showed a high reduction of the color spot of the substrate and the formationof other reaction product; +++: it showed a substantial disappearance of the substrate spot and the formation of other reaction product. To be noted: two units/g substrate, substrate 2% (w/v), 30° C., pH 6.0, 24 hours. As for the experimental part: (§1) It was tested whether saccharides can be used as substrates for the polypeptide of α-isomaltosylglucosaccharide-forming enzyme of the present invention. For the purpose, a solution of maltose, maltotriose, maltotetraose, maltopentaose, maltohexaose, maltoheptaose, isomaltose, isomaltotriose, panose, isopanose, trehalose, kojibiose, nigerose, neotrehalose, cellobiose, gentibiose, maltitol, maltotriitol, lactose, sucrose, erlose, selaginose, maltosyl glucoside, or isomaltosyl glucoside was prepared.
(§2) To each of the above solutions was added two units/g substrate of a purified polypeptide specimen of α-isomaltosylglucosaccharide-forming enzyme from either Bacillus globisporus C11 obtained by the method in Experiment 1-3, Bacillus globisporus N75 obtained by the method in Experiment 2-3, or Arthrobacter globiformis A19 obtained by the method in Experiment 3-3, and the resulting each solution was adjusted to give a substrate concentration of 2% (w/v) and incubated at 30° C. and pH 6.0, except for using pH 8.4 for the enzyme from Arthrobacter globiformis A19, for 24 hours. In order to analyze the saccharides in the reaction mixture before and after the enzymatic reaction, silica gel thin-layer chromatography (hereinafter, abbreviated as “TLC”) was carried out. After two-times development using, as a developer, a mixture solution of n-butanol, pyridine, and water (=6:4:1), and, as a thin-layer plate, “KIESELGEL 60”, an aluminum plate (20×20 cm) for TLC commercialized by Merck & Co., Inc., Rahway, USA, the saccharides in the reaction mixture were examined whether the enzyme acted or not by the coloration of sugars by the sulfuric acid-methanol method.

Assay [2] has as its system α-isomaltosylglucosaccharide-forming enzyme from Arthrobacter globiformis A19. The assay is described as above. To be noted: two units/g substrate, substrate 2% (w/v), 30° C., pH 8.4, 24 hours. The format is biochemical. Further details: key: −: it showed no change; +: it showed a slight reduction of the color spot of the substrate and the formation of other reaction product; ++: it showed a high reduction of the color spot of the substrate and the formationof other reaction product; +++: it showed a substantial disappearance of the substrate spot and the formation of other reaction product. As to the method:
as §1, §2

Assay [3] relates to α-isomaltosylglucosaccharide-forming enzyme from Bacillus globisporus C11. The assay is described as above. The format is biochemical. Further details: key: −: it showed no change; +: it showed a slight reduction of the color spot of the substrate and the formation of other reaction product; ++: it showed a high reduction of the color spot of the substrate and the formationof other reaction product; +++: it showed a substantial disappearance of the substrate spot and the formation of other reaction product. Conditions: two units/g substrate, substrate 2% (w/v), 30° C., pH 6.0, 24 hours. As for the experimental part: as §1, §2

Assay [4] concerns polypeptide having α-isomaltosylglucosaccharide-forming enzyme activity, obtained in Experiment 1-3. The assay is described as follows: Reaction product from maltooligosaccharide (sugar composition by HPLC). Further details: unit not given here. Type of assay: biochemical, Bacillus globisporus C11. To be noted: 1% (w/v) substrate, 35° C., pH 6.0, 8 hours. As to the method: To an aqueous solution containing one percent (w/v) of maltose, maltotriose, maltotetraose, or maltopentaose as a substrate was added the polypeptide having α-isomaltosylglucosaccgaride-forming enzyme activity, obtained in Experiment 1-3, in an amount of two units/g-solid for maltose and maltotriose, 0.2 unit/g-solid for maltotetraose, and 0.1 unit/g-solid for maltopentaose, followed by incubation at 35° C. and pH 6.0 for 8 hours. After stopping the enzymatic reaction by a 10-minutes incubation, sugar compositions in the reaction mixture were measured by HPLC using “YMC Pack ODS-AQ303”, a column commercialized by YMC Co., Ltd., Tokyo, Japan, at a column temperature of 40° C. and a flow rate of 0.5 ml/minutes of water, and using as a detector “RI-8012”, a differential refractometer commercialized by Tosoh Corporation, Tokyo, Japan.

Assay [5] has as its system polypeptide having α-isomaltosylglucosaccharide-forming enzyme activity. The assay is described as follows: Action on saccharides, summary in words for the polypeptide in general. The format is biochemical. Conditions: summary of Table 7. As for the experimental part:
as §1, §2

SMILES strings stand for the structures.

`OC[C@H]1O[C@H](O[C@H]2[C@H](O)[C@@H](O)[C@H](O)O[C@@H]2CO)[C@H](O)[C@@H](O)[C@@H]1O` [Maltose, maltose]: the “Enzyme action, N75 enzyme” value in assay [1] is reported as “+”. Further, in assay [2], the “Enzyme action, A19 enzyme” value is reported as “+”. In addition, in assay [3], the “Enzyme action, C11 enzyme” value is listed as “+”. Also, the “Sugar composition of reaction mixture, substrate Maltopentaose” value in assay [4] (0.1 unit/g-solid) is 0.0. Moreover, the “Sugar composition of reaction mixture, substrate Maltotetraose” value in assay [4] (0.2 unit/g-solid) was 0.3. Moreover, in assay [4] (two units/g-solid), the “Sugar composition of reaction mixture, substrate Maltotriose” value worked out at 17.9 and the “Sugar composition of reaction mixture, substrate Mlatose” value worked out at 78.0. For the same molecule, in assay [5], the “Action of the polypeptide on the saccharide (in words)” value was “slightly acted”.
